The results in this text go back to patent US20160199469A1, “ONCOLOGY VACCINE” (priority 2013, published 2016).

Holding throughout (type): cell-based, human
Experiment [1] relates to PBMC from individuals with non-small cell lung cancer (NSCLC). Description: IFNγ ELISpot after 7 day short-term culture, NSCLC patients (Example 3). Conditions: for responder frequency: NSCLC patients, percentage of patients with peptide responses of greater than 500 SFC/million, peptide pools 5 μg/peptide/mL; for IFN-γ ELISpot spot intensity in NSCLC patients compared with healthy subjects: FIG. 7, Mann-Whitney unpaired test.

For experiment [2], the system named is PBMC from healthy subjects. Description: Peptide-specific T cell responses by IFN-γ ELISpot after short term culture, healthy subjects (Example 2). Conditions: positive response = SFC/10^6 PBMC greater than 20, pools of overlapping 18-mer peptides at 5 μg/peptide/mL.
Experimental: Peptide-specific T cell responses were evaluated in peripheral mononuclear cells obtained from healthy subjects. After thawing, PBMC were cultured in 24-well flat bottom plates (or 48-well bottom plates) at a density of 1 million cells per ml in the presence of culture medium (RPMI 1640 Medium, Glutamax™ (Life Technologies) with 5% (v/v) human AB Serum (PAA Laboratories Ltd)) and a pool of peptides (composed of P103-P53, P513_MAGE3, P679_MAGE3, P805_NY_ESO1, P1575_HER, P2238-HER, P3825_MUC1, P3776_MUC1, P4540_hTERT, P4575_hTERT, P5400_MAGE1, P-HAGE) at a total final concentration of 20 μg/mL.
The plates were incubated at 37° C. in a 5% CO2 incubator and on Day 4, recombinant human IL-2 and IL-15 (R&D Systems) were added to each well at final concentrations of 10 IU/ml and 10 ng/mL respectively. On Day 7, PBMC cultures were removed and washed in culture medium and replaced back into wells in culture medium containing 10 IU/mL of IL-2. After overnight resting at 37° C. in a 5% CO2 incubator, cells were removed, counted and assessed for viability. PVDF plates (MSIPS4510, Millipore) were coated with anti-human IFN-γ antibody (R&D systems) and incubated overnight at 4° C. Plates were then washed and incubated with blocking buffer (1% BSA (PAA), 5% sucrose (Fisher), Dulbecco's-PBS (Invitrogen)) for at least 1 hour and finally washed with culture medium before use. […] After 18 hours of culture, plates were washed and incubated with a biotinylated secondary anti-human IFN-γ antibody (R&D systems) followed by streptavidin-AP. Production of IFN-γ was detected using the ELISpot blue colour module (R&D Systems) as per manufacturer's instructions. Plates were scanned and wells were counted using an automated ELISpot plate reading system equipped with spot counting software (Cellular Technology Limited). Results are expressed as Spot Forming Cells (SFC)/10^6 PBMC and background responses represented by IFNγ SFC of PBMC in culture medium alone have been subtracted for each subject. Positive response was defined as number of Spot Forming Cells (SFC)/10^6 PBMC greater than 20.
Another experiment deals with PBMC from NSCLC subjects. Put plainly: Intracellular cytokine staining (ICS) of CD4+ and CD8+ T cells after short-term culture. Conditions: for Th1 cytokine-producing CD4 and/or CD8 T cell responses: intracellular cytokine staining, FIGS. 8, 9 and 10; for level of response among the peptides in the mixture: short term culture with a combination of peptide pools. How it is done: PBMC were cultured in 2 mL culture medium (CM, RPMI1640 Glutamax supplemented with 5% untreated human AB serum (PAA) and gentamicin) in 24 well cell culture plates at a concentration of 1×10^6 cells/mL for a total of 7 days. Each pool was added at 20 μg/mL total peptide final concentration. On day 1, IL-7 (Peprotech) and IL-2 (R&D Systems) were added to the cultures to a final concentration of 5 ng/mL and 10 IU/mL respectively. On day 3, IL-2 was added at a concentration of 10 IU/mL. On day 7, cells were harvested from cell culture plates washed with culture medium and counted using TruCount (BD Biosciences) before analysis using IFNγ (interferon gamma) ELISpot assay or intracellular cytokine staining (ICS) as described below.
Short term culture of PBMC were prepared as described above, except culture conditions 1 and 2 were replaced with alternative culture conditions 1 to 5 below, each of which involves stimulation with a different combination of peptide pools:
Culture 5: P-P805_NY_ESO1
Cells from the short-term cultures were plated in a 96 well round bottom plate at 5×10^5 PBMC/well stimulated with individual peptide pools used at a concentration of 5 μg/peptide/mL. Plates were incubated at 37° C. in a 5% CO2 incubator for 20h. PMA/Ionomycin was added to respective wells and Golgi plug (BD Biosciences) was added to all wells after the first 3h of the assay. The cells were harvested and washed with PBS+0.1% BSA (wash buffer) and stained with anti-CD3, anti-CD4 and anti-CD8 (BD Biosciences) for 30 minutes at 4° C. After another wash, the cells were fixed and permeabilised with 100 μL of Cytofix/Cytoperm solution (BD Biosciences) for 20 minutes at 4° C., followed by two washes with 1× Perm/Wash solution (BD Biosciences). Finally, cells were stained with ant-IL-2-FITC, anti-IFNγ-PE and anti-TNFα PerCP-Cy5.5 (BD Biosciences) for 30 minutes at 4° C. Samples were acquired on a FACSCanto II flow cytometer (BD Biosciences). Gating was based on isotype control antibody staining and media stimulated samples for each subject.

For experiment [3], the system named is PBMC from healthy individuals. Put plainly: IFNγ ELISpot after 7 day short-term culture, healthy individuals (Example 3). Conditions: healthy subjects (FIGS. 3 and 5).

In turn, “GAQYRIHTHGVFRGIQDVRRVPGVAPTLVRSASETSEKRPF (listed as Homo sapiens) [P1331_WT1]” came in with a responder frequency in experiment [1] of 5.08%.
Turning to “AGIRRDGLLLRLVDDFLLVTPHLTHAKTFLRTLVRGVPEYG (listed as Homo sapiens) [P4862_TERT]”, the responder frequency in experiment [1] (listed as P4862_hTERT) was determined as 7.93%.
As for “GENVKIPVAIKVLRENTSPKANKEILDEAYVMAGVGSPYVSRKK (listed as Homo sapiens) [P2238-HER]”, the “frequency of responding subjects” value in experiment [2] came out at 83%. In experiment [1], this sequence gave a responder frequency of 10.00%.
In the same order, the values of “VQGYVLIAHNQVRQVPLQRLRIVRGTQLFEDNYALAVL (listed as Homo sapiens) [P1575_HER]” are 100% and 16.12%.
In the same order, the values of “EFQAALSRKVAELVHFLLLKYRAREPVTKAEMLG (listed as Homo sapiens) [P513_MAGE3]” are 50% and 18.46%.
For “HREARPALLTSRLRFIPKPDGLRPIVNMDYVVGARTFRREK [P4616_hTERT]”, in the experiment on PBMC from NSCLC subjects, the “Th1 cytokine-producing CD4 and/or CD8 T cell responses” value is given as “ability to promote Th1 cytokine-producing CD4 and/or CD8 T cell responses”. This sequence also yielded a responder frequency in experiment [1] of 37.50%.
Consider “TFQKNRLFFYRKSVWSKLQSIGIRQHLKRVQLRELSEAEVR (listed as Homo sapiens) [P4575_hTERT]”, for which, in the experiment with PBMC from NSCLC subjects, the “Th1 cytokine-producing CD4 and/or CD8 T cell responses” value is recorded as “ability to promote Th1 cytokine-producing CD4 and/or CD8 T cell responses”. In addition, in experiment [2], the “frequency of responding subjects” value was 100%.
For the sequence “RTFRREKRAERLTSRVKALFSVLNYERARRPGLLGASVLGLDDI (listed as Homo sapiens) [P4650_hTERT]”, in the experiment on PBMC from NSCLC subjects, the “Th1 cytokine-producing CD4 and/or CD8 T cell responses” value is listed as “ability to promote Th1 cytokine-producing CD4 and/or CD8 T cell responses”. For the same sequence, in experiment [1], the “IFN-γ ELISpot spot intensity in NSCLC patients compared with healthy subjects” value is reported as “significantly lower” and the responder frequency is recorded as 38.70%.
In the case of “YEFLWGPRALVETSYVKVLHHMVKISGGPHISYPPLH (listed as Homo sapiens) [P679_MAGE3]”, the “Th1 cytokine-producing CD4 and/or CD8 T cell responses” value with PBMC from NSCLC subjects is listed as “ability to promote Th1 cytokine-producing CD4 and/or CD8 T cell responses”. Also, in experiment [2], the “frequency of responding subjects” value was determined as 80%. Moreover, in experiment [1], the “IFN-γ ELISpot spot intensity in NSCLC patients compared with healthy subjects” value was “significantly lower” and the responder frequency is given as 28.57%.
Take “PDGPGGNAGGPGEAGATGGRGPRGAGAARASGPGGGAP (listed as Homo sapiens) [P750-NYESO, used as a negative control peptide]”: the “magnitude of response and responder frequency” value is “amongst the lowest responding peptides” in experiment [1] (NSCLC patients (FIGS. 2 and 4)); “amongst the lowest responding peptides” in experiment [3]. This sequence also showed a responder frequency in experiment [1] of 3.12%.
In the case of “RLLQLHITMPFSSPMEAELVRRILSRDAAPLPRPGAVL (listed as Homo sapiens) [P5525_LAGE1]”, the “Th1 cytokine-producing CD4 and/or CD8 T cell responses” value in the experiment on PBMC from NSCLC subjects is “ability to promote Th1 cytokine-producing CD4 and/or CD8 T cell responses”. In experiment [1], the “IFN-γ ELISpot spot intensity in NSCLC patients compared with healthy subjects” value was “significantly lower” and the responder frequency is 31.03%.
Regarding “PARYEFLWGPRALAETSYVKVLEYVIKVSARVRFFFPSLREA (listed as Homo sapiens) [P5400_MAGE1]”, in the experiment on PBMC from NSCLC subjects, the “Th1 cytokine-producing CD4 and/or CD8 T cell responses” value was “ability to promote Th1 cytokine-producing CD4 and/or CD8 T cell responses” and the “level of response among the peptides in the mixture” value (“level” for short) is “highest level of response”. The “frequency of responding subjects” value in experiment [2] was determined as 100%. Also, in experiment [1], the “IFN-γ ELISpot spot intensity in NSCLC patients compared with healthy subjects” value is “significantly lower” and the responder frequency is given as 27.41%.
As for “ILESLFRAVITKKVADLVGFLLLKYRAREPVTKAEMLESVIK (listed as Homo sapiens) [P5232_MAGE1]”, the “Th1 cytokine-producing CD4 and/or CD8 T cell responses” value in the experiment on PBMC from NSCLC subjects is on record as “ability to promote Th1 cytokine-producing CD4 and/or CD8 T cell responses”. Moreover, in experiment [1], the “IFN-γ ELISpot spot intensity in NSCLC patients compared with healthy subjects” value is “significantly lower” and the responder frequency amounted to 32.25%.
Turning to “RGPESRLLEFYLAMPFATPMEAELARRSLAQDAPPLPVPG (listed as Homo sapiens) [P805_NY_ESO1]”, in the experiment on PBMC from NSCLC subjects, the “Th1 cytokine-producing CD4 and/or CD8 T cell responses” value was “ability to promote Th1 cytokine-producing CD4 and/or CD8 T cell responses” and the “level” value was “highest level of response”. Further, the “frequency of responding subjects” value in experiment [2] is recorded as 50%. Besides, in experiment [1], the “IFN-γ ELISpot spot intensity in NSCLC patients compared with healthy subjects” value is “significantly lower” and the responder frequency was found to be 34.92%.
Consider “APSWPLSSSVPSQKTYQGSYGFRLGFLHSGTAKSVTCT (listed as Homo sapiens) [P103-P53]”, for which, in the experiment with PBMC from NSCLC subjects, the “Th1 cytokine-producing CD4 and/or CD8 T cell responses” value is “ability to promote Th1 cytokine-producing CD4 and/or CD8 T cell responses”. Further, the “frequency of responding subjects” value in experiment [2] came out at 100%. For the same sequence, the “IFN-γ ELISpot spot intensity in NSCLC patients compared with healthy subjects” value in experiment [1] is recorded as “significantly lower”.
The sequence “LGLSYDGLLGDNQIMPKAGLLIIVLAIIAREGD (listed as Homo sapiens) [P590-MAGE3]” yielded a responder frequency in experiment [1] of 15.87%.
Regarding “TSSNHSTSPQLSTGVSFFFLSFHISNLQFNSSLEDPST (listed as Homo sapiens) [P3776_MUC1]”, the “frequency of responding subjects” value in experiment [2] worked out at 100%. This sequence came in with a responder frequency in experiment [1] of 4.76%.
As to “HRLREEILAKFLHWLMSVYVVELLRSFFYVTETTFQKNR (listed as Homo sapiens) [P4540_hTERT]”, the “Th1 cytokine-producing CD4 and/or CD8 T cell responses” value in the experiment with PBMC from NSCLC subjects is given as “ability to promote Th1 cytokine-producing CD4 and/or CD8 T cell responses”. Further, the “frequency of responding subjects” value in experiment [2] is 67%. In addition, in experiment [1], the “IFN-γ ELISpot spot intensity in NSCLC patients compared with healthy subjects” value is “significantly lower” and the responder frequency is 23.43%.
Consider “SVVGNWQYFFPVIFSKASSSLQLVEGIELMEVDPIGHLYIF (SVVGNWQYFFPVIFSKASSSLQLVFGIELMEVDPIGHLYIF; listed as Homo sapiens) [P550_MAGE3]”, for which, in the experiment on PBMC from NSCLC subjects, the “Th1 cytokine-producing CD4 and/or CD8 T cell responses” value is given as “ability to promote Th1 cytokine-producing CD4 and/or CD8 T cell responses” and the “level” value is recorded as “highest level of response”. In addition, in experiment [1], the “IFN-γ ELISpot spot intensity in NSCLC patients compared with healthy subjects” value is given as “significantly lower”.
Turning to “RAVRSLLRSHYREVLPLATFVRRLGPQGWRLVQRGDPAAFRA (listed as Homo sapiens) [P4020_hTERT]”, the “Th1 cytokine-producing CD4 and/or CD8 T cell responses” value in the experiment with PBMC from NSCLC subjects is recorded as “ability to promote Th1 cytokine-producing CD4 and/or CD8 T cell responses”. In experiment [1], the “IFN-γ ELISpot spot intensity in NSCLC patients compared with healthy subjects” value is reported as “significantly lower” and the responder frequency stood at 32.81%.
Regarding “QTGTGKTLCYLMPGFIHLVLQPSLKGQRNRPGMLV (listed as Homo sapiens) [P-HAGE]”, in the experiment on PBMC from NSCLC subjects, the “Th1 cytokine-producing CD4 and/or CD8 T cell responses” value is on record as “ability to promote Th1 cytokine-producing CD4 and/or CD8 T cell responses”. Moreover, the “frequency of responding subjects” value in experiment [2] turned out to be 50%. Also, in experiment [1], the “IFN-γ ELISpot spot intensity in NSCLC patients compared with healthy subjects” value is listed as “significantly lower”.
“EMFLQIYKQGGFLGLSNIKFRPGSVVVQLTLAFREGTINVH (listed as Homo sapiens) [P3825_MUC1]”: the “frequency of responding subjects” value in experiment [2] was 17%. For the same sequence, the responder frequency in experiment [1] is recorded as 8.06%.
Turning to “PALGSTAPPVHNVTSASGSASGSASTLVHNGTSARATTTPASK (listed as Homo sapiens) [P3698_MUC1]”, the responder frequency in experiment [1] worked out at 14.06%.
On the same count and under the same terms, the same measure for “AFLSVKKQFEELTLGEFLKLDRERAKNKIAKETNNKKKE (listed as Homo sapiens) [P991_SURVIVIN]”: 14.51%; for “MTPGTQSPFFLLLLLTVLTVVTGSGHASSTPGG (listed as Homo sapiens) [P2753_MUC1]”: 4.76%.
